Values after ≈ are worked out from the molar mass of the structure shown.
Columns and labels:
SF268 glioblastoma cells = experiment: MTT cytotoxicity in the glioblastoma cell line SF268 (single-concentration screening and IC50); format: cell-based, Human; details: for activity at 10 µg/mL / IC50: Homo sapiens; for activity at 10 µg/mL: SF-268, 48 h, read-out: Growth Screening (%RG); for activity at 10 µg/mL / Growth Screening (%RG): SF268, single concentration 10 µg/mL, 48 h, percentage of relative growth; for IC50: SF-268; for Selectivity Index (SI): Vero versus SF268
Experimental: Cultures were maintained at 37 °C in a 5% CO2 atmosphere and split by trypsin treatment once per week to maintain confluence.
RPMI without cells was used as a color control, and doxorubicin was used as an inhibition control. After treatment, MTT was added to each well, and the absorbance at 570 nm was determined 4 h later using a color plate reader. All bioassays were performed in duplicate, and the IC50 values were determined by the Data Analysis complement Wizard of Excel 2000 (Microsoft, Seattle, WA, USA).

SF268 cell microtubules = experiment: Immunofluorescence staining of microtubules in SF268 cells; format: cell-based, Human; details: SF268, 10 µg/mL, 24 h / 12 h, versus DMSO control
Experimental: SF268 cells were seeded onto 96-well plates and allowed to adhere overnight in complete growth medium (RPMI-1640).
After treatment, the cells were rinsed two times with PBS, fixed in 4% paraformaldehyde (15 min), and permeabilized with 0.5% Triton X-100 (Sigma Aldrich, St. Louis, MO, USA) (5 min). Nonspecific binding was blocked with 5% bovine serum albumin (BSA) in phosphate-buffered saline (PBS) for 1 h. […] Nuclei were counterstained with Hoechst 33342 (15 min), washed 2 times with PBS, and left in PBS at 4 °C in the dark.
Fluorescence images were acquired with an Olympus IX70 microscope (Olympus, Tokyo, Japan) using a 60× objective with identical exposure settings for all conditions. Microtubule density and organization were acquired and analyzed using β-tubulin signals in HCImage Hamamatsu (version 4.8) and ImageJ (version 1.54).
SF268 cells were exposed to media containing either DMSO as a control or curcumin derivatives at 10 μg/mL for 24 h, after which the microtubules were visualized with an α tubulin antibody (yellow), and the cell nuclei were stained with Hoechst (blue).
The cells were then stained with a β-tubulin antibody (yellow) and Hoechst dye (blue) to visualize the nucleus.

Vero cells = experiment: Mammalian cytotoxicity, MTT assay in Vero cells; format: cell-based; details: 48 h; for IC50: Chlorocebus sabaeus
Experimental: Grade IV SF268 glioblastoma cells and Vero epithelial cells were obtained from ATCC and cultured in complete medium consisting of Roswell Park Memorial Institute medium (RPMI-1640) supplemented with 0.05% gentamicin (50 mg/mL) and 10% FBS (fetal bovine serum; Gibco, Invitrogen, Carlsbad, CA, USA). Cultures were maintained at 37 °C in a 5% CO2 atmosphere and split by trypsin treatment once per week to maintain confluence.
For the cytotoxicity assays, Vero cells were cultivated in 96-well plates at 37 °C under a 5% CO2 atmosphere using RPMI-1640 medium with 0.05% gentamicin (50 mg/mL) and 10% FBS (fetal bovine serum). Vero cells were allowed to adhere for 24 h before being incubated for 48 h with the samples. During the treatment, dimethyl sulfoxide (DMSO) was used as a negative control, curcumin (1) was used as a control, and samples were assayed at four different concentrations. After incubation, MTT (3-(4,5-di-methyl-thiazol-2-yl)-2,5-diphenyl-tetrazolium bromide) was added to each well, and the absorbance at 570 nm was determined 4 h later using a color plate reader. Cytotoxicity was evaluated colorimetrically by calculating the ability of the remaining living Vero cells to reduce the pale yellow MTT to the black–purple formazan product, as previously described. All bioassays were performed in duplicate, and the inhibitory concentration (IC50) values were determined using the Data Analysis complement Wizard of Excel 2000 (Microsoft, Seattle, WA, USA).

[1] = system: mitochondrial membrane potential of SF268 cancer cells; experiment: Mitochondrial membrane potential measurement with DiOC6; format: cell-based, Human; details: 10 µg/mL, 6 h, versus DMSO control
Experimental: Changes in membrane potential were measured by staining cultured cells with the mitochondrial selective dye 3,3′-dihexyloxacarbocyanine (DiOC6) at 10 nM (Thermo Fisher, Waltham, MA, USA). The samples were incubated at 10 μg/mL for 6 h at 37 °C and then stained for 20 min with DiOC6 in the dark. Following incubation, the cells were washed, and the green fluorescence intensity of the DiOC6-stained cells was analyzed with a fluorometer immediately after staining. Incubation for 1 h with the mitochondrial membrane disruptor CCCP, carbonyl cyanide m-chlorophenylhydrazone (50 μM final concentration), was used as a positive control.
Changes in the mitochondrial membrane potential, a common hallmark of programmed cell death, were analyzed in samples with promising activities toward CNS cell line growth. We examined the effects of these compounds on the mitochondrial membrane potential using the dye DiOC6, a fluorophore that accumulates rapidly and selectively inside mitochondria depending on the membrane potential.
Figure 6 Changes in mitochondrial membrane potential caused by the compounds. Fluorometry was used to measure the mitochondrial effects of compounds that inhibited cell growth in culture. A membrane disruptor (CCCP) was added as a positive control, and untreated cultures (DMSO) were used as a negative control. […]

Porcine tubulin = biological target: T1, Porcine tubulin (Sus scrofa, UniProt P02550+P02554); experiment: In vitro tubulin polymerization assay (cell-free kit); format: biochemical; details: 10 µg/mL, 1 h at 37 °C, versus DMSO control
T1 construct: purchased Cytoskeleton Inc., Denver, CO, USA BK011P; host or cells: porcine neural tissue (tissue-purified; that it is brain is my own knowledge of the kit)
T1 sequence (P02550 whole entry): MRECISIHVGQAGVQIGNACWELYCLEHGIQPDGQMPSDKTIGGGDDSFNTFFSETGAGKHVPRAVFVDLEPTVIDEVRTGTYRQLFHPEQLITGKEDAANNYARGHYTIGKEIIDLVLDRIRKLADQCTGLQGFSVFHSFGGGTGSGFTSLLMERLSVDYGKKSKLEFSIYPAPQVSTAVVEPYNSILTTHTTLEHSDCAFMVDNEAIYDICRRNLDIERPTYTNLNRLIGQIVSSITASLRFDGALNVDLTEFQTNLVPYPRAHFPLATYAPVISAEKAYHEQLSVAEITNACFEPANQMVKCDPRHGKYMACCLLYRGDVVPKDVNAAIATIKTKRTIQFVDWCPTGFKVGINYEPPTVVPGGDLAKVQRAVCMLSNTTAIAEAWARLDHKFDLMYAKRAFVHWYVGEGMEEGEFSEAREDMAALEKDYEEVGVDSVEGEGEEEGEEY
T1 sequence (P02554 whole entry): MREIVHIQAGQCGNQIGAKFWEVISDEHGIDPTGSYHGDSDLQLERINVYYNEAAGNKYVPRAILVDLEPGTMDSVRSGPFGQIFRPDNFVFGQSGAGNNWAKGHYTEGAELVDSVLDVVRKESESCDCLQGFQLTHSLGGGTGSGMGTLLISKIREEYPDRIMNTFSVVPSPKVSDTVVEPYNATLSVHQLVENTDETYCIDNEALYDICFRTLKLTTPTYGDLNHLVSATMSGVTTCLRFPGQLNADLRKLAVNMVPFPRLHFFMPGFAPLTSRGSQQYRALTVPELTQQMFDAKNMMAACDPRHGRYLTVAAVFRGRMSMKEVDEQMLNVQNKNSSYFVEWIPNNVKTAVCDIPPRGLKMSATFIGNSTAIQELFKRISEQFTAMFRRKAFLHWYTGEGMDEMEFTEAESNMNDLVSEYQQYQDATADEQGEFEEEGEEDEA
Experimental: A Tubulin Polymerization Assay Kit (Porcine tubulin and Fluorescence-based; Cat. # BK011P) (Cytoskeleton Inc., Denver, CO, USA) was used. Neural tubulin (>99% pure cytoskeleton) and tubulin polymerization buffer were mixed with 10 µg/mL curcumin derivatives or the vehicle DMSO at 37 °C in a preheated 96-well plate. The measurement of […] was immediately initiated using a Bio-Tek Synergy HT plate reader (one reading per minute for 1 h, according to the kit instructions). The rate of tubulin polymerization (milli-OD340 units per min) was then calculated for each sample from the linear portion of the kinetics curve, and group mean rates were analyzed for statistical significance.
We used a fluorescence cell-free-based assay to analyze the ability of curcumin to inhibit tubulin polymerization into microtubules in vitro. […]
Figure 5 (A) Tubulin polymerization of compounds 1, 2, 3, 4, 6, and 11. Tubulin polymerization was monitored by the increase in fluorescence at 360 nm (excitation) and 420 nm (emission) for 1 h at 37 °C. […]
The tubulin polymerization activities were determined by measuring fluorescence and recording the area under the curve (AUC). Increasing fluorescence indicates increasing polymerization activity, whereas decreasing fluorescence indicates greater depolymerization activity.

| Compound | activity at 10 µg/mL (SF268 glioblastoma cells; MTT) [%] | IC50 (Vero cells) [µg/mL] | IC50 (SF268 glioblastoma cells; SF268, 48 h, MTT) [µg/mL] | also measured |
| --- | --- | --- | --- | --- |
| COc1cc(C=CC(=O)C=C(O)C=Cc2ccc(OC(=O)CCC(=O)OC3CC(C)CCC3C(C)C)c(OC)c2)ccc1OC(=O)CCC(=O)OC1CC(C)CCC1C(C)C (stereo not shown) [Compound 8] | 55.2 | – | – | – |
| C=CCOC(=O)CCC(=O)Oc1ccc(/C=C/C(=O)/C=C(O)/C=C/c2ccc(O)c(OC)c2)cc1OC [Compound 11, Allyl (4-(1E,3Z,6E)-3-hydroxy-7-(4-hydroxy-3-methoxyphenyl)-5-oxohepta-1,3,6-trien-1-yl)-2-methoxyphenyl) succinate] | ≤ 40 | 11.9 | 0.59 | microtubule density and organization (SF268 cell microtubules): significant reduction in microtubule density; mitochondrial membrane potential (DiOC6 fluorescence intensity) [1]: lowest fluorescence intensity; Selectivity Index (SI) (SF268 glioblastoma cells): 20.17 |
| COc1cc(/C=C/C(=O)/C=C(O)/C=C/c2ccc(OC(=O)CCC(=O)OC3c4ccccc4-c4ccccc43)c(OC)c2)ccc1OC(=O)CCC(=O)OC1c2ccccc2-c2ccccc21 [Compound 20] | 63 | – | – | – |
| COc1cc(/C=C/C(=O)/C=C(O)/C=C/c2ccc(OC(=O)CCC(=O)OC3C4CC5CC(C4)CC3C5)c(OC)c2)ccc1OC(=O)CCC(=O)OC1C2CC3CC(C2)CC1C3 (stereo not shown) [Compound 10] | 52 | – | – | – |
| COc1cc(/C=C/C(O)=C/C(=O)/C=C/c2ccc(OC(=O)CCC(=O)OC3c4ccccc4-c4ccccc43)c(OC)c2)ccc1O [Compound 19] | ≤ 40 | 15.2 (≈ 24 µM) | 1.11 (≈ 1.75 µM) | Selectivity Index (SI) (SF268 glioblastoma cells): 13.71 |
| Cyclopentyl (4-((1E,3Z,6E)-3-hydroxy-7-(4-hydroxy-3-methoxyphenyl)-5-oxohepta-1,3,6-trien-1-yl)-2-methoxyphenyl) succinate [Compound 5] | – | – | – | IC50 VERO (Vero cells): 12.6 µg/mL; Growth Screening (%RG) (SF268 glioblastoma cells; MTT): 50.81% |
| COc1cc(/C=C/C(=O)/C=C(O)/C=C/c2ccc(OC(=O)CCC(=O)OC3Cc4ccccc4C3)c(OC)c2)ccc1OC(=O)CCC(=O)OC1Cc2ccccc2C1 [Compound 18] | 62.9 | – | – | – |
| COc1cc(/C=C/C(O)=C/C(=O)/C=C/c2ccc(OC(C)=O)c(OC)c2)ccc1O [Compound 3] | ≤ 40 | 13.2 (≈ 32.2 µM) | 0.88 (≈ 2.14 µM) | mitochondrial membrane potential (DiOC6 fluorescence intensity) [1]: lowest fluorescence intensity |
| [Ca+2].[Cl-].[Cl-] [calcium chloride] | – | – | – | tubulin polymerization (fluorescence, AUC) (Porcine tubulin): significant decrease in the AUC |
| COc1cc(/C=C/C(O)=C/C(=O)/C=C/c2ccc(OC(=O)CCC(=O)O[C@@H]3C[C@H](C)CC[C@H]3C(C)C)c(OC)c2)ccc1O [Compound 7] | 50.9 | – | – | – |
| Benzyl (4-((1E,3Z,6E)-3-hydroxy-7-(4-hydroxy-3-methoxyphenyl)-5-oxohepta-1,3,6-trien-1-yl)-2-methoxyphenyl) succinate [Compound 13] | – | – | – | Growth Screening (%RG) (SF268 glioblastoma cells; MTT): 49.88% |
| COC(=O)CCC(=O)Oc1ccc(/C=C/C(=O)/C=C(O)/C=C/c2ccc(O)c(OC)c2)cc1OC [Compound 6] | ≤ 40 | 12.9 (≈ 26.7 µM) | 0.833 (≈ 1.73 µM) | microtubule density and organization (SF268 cell microtubules): significant reduction in microtubule density; Selectivity Index (SI) (SF268 glioblastoma cells): 15.45 |
| C=CCOC(=O)CCC(=O)Oc1ccc(/C=C/C(=O)/C=C(O)/C=C/c2ccc(OC(=O)CCC(=O)OCC=C)c(OC)c2)cc1OC [Compound 12, Diallyl O,O′-(((1E,3Z,6E)-3-hydroxy-5-oxohepta-1,3,6-triene-1,7-diyl)bis(2-methoxy-4,1-phenylene)) disuccinate] | 49.2 | – | – | – |
| COc1cc(/C=C/C(=O)/C=C(O)/C=C/c2ccc(OC(=O)CCC(=O)OC(c3ccccc3)C3CCCCC3)c(OC)c2)ccc1OC(=O)CCC(=O)OC(c1ccccc1)C1CCCCC1 (stereo not shown) [Compound 16] | 57.2 | – | – | – |
| 1,7-bis(4-hydroxy-3-methoxyphenyl)hepta-1,6-diene-3,5-dione [Compound 1, reference compound] | – | – | – | IC50 VERO (Vero cells): 15.9 µg/mL; IC50 SF268 (SF268 glioblastoma cells; SF268, 48 h, MTT): 6.3 µg/mL |
| COc1cc(/C=C/C(O)=C/C(=O)/C=C/c2ccc(OC(=O)CCC(=O)OC(c3ccccc3)c3ccccc3)c(OC)c2)ccc1O [Compound 21] | ≤ 40 | 46 (≈ 72.5 µM) | 36.4 (≈ 57.4 µM) | Selectivity Index (SI) (SF268 glioblastoma cells): 1.26 |
| COc1cc(/C=C/C(O)=C/C(=O)/C=C/c2ccc(OC(=O)CCC(=O)OCc3ccc4c(c3)C(=O)c3ccccc3C4=O)c(OC)c2)ccc1O [Compound 22] | ≤ 40 | 72.8 (≈ 106 µM) | 58.9 (≈ 85.5 µM) | Selectivity Index (SI) (SF268 glioblastoma cells): 1.19 |
| COc1cc(/C=C/C(=O)/C=C(O)/C=C/c2ccc(OC(=O)CCC(=O)OCc3ccccc3)c(OC)c2)ccc1OC(=O)CCC(=O)OCc1ccccc1 [Compound 14, Dibenzyl O,O′-(((1E,3Z,6E)-3-hydroxy-5-oxohepta-1,3,6-triene-1,7-diyl)bis(2-methoxy-4,1-phenylene)) disuccinate] | 85.1 | – | – | – |
| CC(=O)O[C@H]1C(=O)[C@@]2(C)[C@H]([C@H](OC(=O)c3ccccc3)[C@]3(O)C[C@H](OC(=O)[C@H](O)[C@@H](NC(=O)c4ccccc4)c4ccccc4)C(C)=C1C3(C)C)[C@]1(OC(C)=O)CO[C@@H]1C[C@@H]2O [Paclitaxel] | – | – | – | tubulin polymerization (fluorescence, AUC) (Porcine tubulin): caused an increase in the AUC |
| COc1cc(/C=C/C(O)=C/C(=O)/C=C/c2ccc(OC(=O)CCC(=O)OC3CCCc4ccccc43)c(OC)c2)ccc1O (stereo not shown) [Compound 17] | 46.8 | – | – | – |
| COc1cc(/C=C/C(=O)/C=C(O)/C=C/c2ccc(OC(C)=O)c(OC)c2)ccc1OC(C)=O [Compound 4, (1E,3Z,6E)-3-hydroxy-5-oxohepta-1,3,6-triene-1,7-diyl)bis(2-methoxy-4,1-phenylene) diacetate] | ≤ 40 | 42.1 | 2.45 | Selectivity Index (SI) (SF268 glioblastoma cells): 17.16 |
| COc1cc(/C=C/C(O)=C/C(=O)/C=C/c2ccc(OC(=O)CCC(=O)OC(c3ccccc3)C3CCCCC3)c(OC)c2)ccc1O (stereo not shown) [Compound 15] | 47.9 | – | – | – |
| COc1cc(/C=C/C(O)=C/C(=O)/C=C/c2ccc(OC(=O)CCC(=O)OC3C4CC5CC(C4)CC3C5)c(OC)c2)ccc1O (stereo not shown) [Compound 9] | 45.6 | – | – | – |
| COc1cc(/C=C/C(O)=C/C(=O)/C=C/c2ccc(OCc3ccccc3)c(OC)c2)ccc1O [Compound 2] | – | 11.9 (≈ 26 µM) | 3.97 (≈ 8.65 µM) | microtubule density and organization (SF268 cell microtubules): significant reduction in microtubule density |

Source: paper PMC12389136, “Insights into the Structural Patterns in Human Glioblastoma Cell Line SF268 Activity and ADMET Prediction of Curcumin Derivatives” (Pharmaceutics, 2025)
